Format in all cases: functional
Experiment [1] in a line: Local anaesthetic activity in rat sciatic nerve assessed as time required to decrease compound action potential to 50 % at 1.5% relative to Lidocaine. Also on record: scale not given: the % may be the effect or the level left.
Experiment [2] in a line: Local anaesthetic activity in rat sciatic nerve assessed as time required to decrease compound action potential to 50 % relative to Lidocaine. Also on record: scale not given: the % may be the effect or the level left.
Experiment [3] is described as follows: Local anaesthetic activity in rat sciatic nerve assessed as vitality time at 1.5%.
Experiment [4] can be described thus: Local anaesthetic activity in rat sciatic nerve assessed as time required to decrease compound action potential to 50 %.
Experiment [5] can be described thus: Local anaesthetic activity in rat sciatic nerve assessed as time required to decrease compound action potential to 100 % at 1.5% relative to Lidocaine. Also on record: scale not given: the % may be the effect or the level left.
The nature of experiment [6]: Local anaesthetic activity in rat sciatic nerve assessed as time required to decrease compound action potential to recover to 50 %.
The nature of experiment [7]: Local anaesthetic activity in rat sciatic nerve assessed as time required to decrease compound action potential to 100 % relative to Lidocaine. The arrangement: scale not given: the % may be the effect or the level left.
A short description of experiment [8]: Local anaesthetic activity in rat sciatic nerve assessed as time required to decrease compound action potential to recover to 50 % at 1.5%.
Experiment [9] is described as follows: Local anaesthetic activity in rat sciatic nerve assessed as time required to decrease compound action potential to 100 % at 1.5%.
Experiment [10] is described as follows: Local anaesthetic activity in rat sciatic nerve assessed as time required to decrease compound action potential to 50 % at 1.5%.
A short description of experiment [11]: Local anaesthetic activity in rat sciatic nerve assessed as vitality time.
A short description of experiment [12]: Local anaesthetic activity in rat sciatic nerve assessed as time required to decrease compound action potential to 100 %.

Consider `CCNCC(=O)Nc1nsc2ccccc12`, for which the Activity in experiment [1] was 27.3%; in [2], 62.8%; in experiment [5], 28.1%; in experiment [7], 57.9%. Moreover, the VT50 is given as 658 min in [3] and 600 min in [11]. The IT50 in experiment [4] was found to be 5 min; in experiment [10] it was 11.5 min. The RT50 in [6] was found to be 76 min; in [8], 135 min. Further, the IT100 in experiment [9] was 49.9 min; in experiment [12], 24.2 min.
Take `O=C(CN1CCOCC1)Nc1nsc2ccccc12`: the Activity is reported as 26.2% in experiment [1], 57.1% in [2], 26% in [5] and 140% in experiment [7]. In addition, the VT50 is on record as 666.7 min in experiment [3] and 511 min in [11]. The IT50 was 5.5 min in experiment [4] and 8.1 min in experiment [10]. Besides, the figures for the RT50 in experiment [6] and in experiment [8] were 88 min and 40 min, respectively. Besides, the IT100 in [9] is given as 19 min; in experiment [12], 10 min.
